Assay results from patent US20190307754A1, “PDE9 INHIBITORS FOR TREATMENT OF PERIPHERAL DISEASES” (IMARA, INC., priority 2016, published 2019).
Read-outs that look alike come from different tables or passages of the source.

What was measured:
[1] = Fourteen-day repeat-dose toxicity study in beagle dogs; type: in vivo, dog; conditions: beagle, in vivo, dog; for NOAEL at 14 days: both sexes, oral, males and females, 14-day; for Cmax / AUC(0-t): po; for AUC(0-t): read-out: AUC0-24
Description: (§1) In a GLP 14-day repeat-dose toxicity study in dogs, Compound P3.1 was orally administered at doses of 0, 10, 35, or 75 mg/kg/day. […] The no-observed-adverse-effect level (NOAEL) was considered to be 35 mg/kg/day in males and females.

[2] = test system: dog; experiment: as above; type: in vivo
Description: as §1

[3] = Bacterial reverse mutation assay; type: cell-based
From the text: The genotoxicity evaluation of Compound P3.1 consisted of a bacterial reverse mutation assay, a chromosome aberration study, and a in vivo rat micronucleus study. Compound P3.1 was negative in all 3 assays.

[4] = female, 10 mg, females, 10 mg, Day 1
[5] = female, 10 mg, females, 10 mg, Day 14
[6] = female, 35 mg, females, 35 mg, Day 1
[7] = female, 35 mg, females, 35 mg, Day 14
[8] = female, 75 mg/kg/day, females, 75 mg, Day 1
[9] = female, 75 mg/kg/day, females, 75 mg, Day 14
[10] = male, 10 mg, males, 10 mg, Day 1
[11] = male, 10 mg, males, 10 mg, Day 14
[12] = male, 35 mg, males, 35 mg, Day 1
[13] = male, 35 mg, males, 35 mg, Day 14
[14] = male, 75 mg/kg/day, males, 75 mg, Day 1
[15] = male, 75 mg/kg/day, males, 75 mg, Day 14

## C[C@@H]1CN(Cc2ncccn2)C[C@H]1c1cn2c(C3CCOCC3)ncc2c(=O)[nH]1 (single isomer, unassigned) [Compound P3.1]
[1]; read-out: no-observed-adverse-effect level (NOAEL)
  NOAEL at 14 days: 35 mg/kg/day
[1]; read-out: no-observed-adverse-effect-level (NOAEL)
  NOAEL at 14 days: 35 mg/kg
[1]; [4]
  Cmax: 1970 ng/mL
  AUC(0-t): 24800 ng·h/mL
[1]; [5]
  Cmax: 3780 ng/mL
  AUC(0-t): 25400 ng·h/mL
[1]; [6]
  Cmax: 5180 ng/mL
  AUC(0-t): 66700 ng·h/mL
[1]; [7]
  Cmax: 10000 ng/mL
  AUC(0-t): 87900 ng·h/mL
[1]; [8]
  Cmax: 13200 ng/mL
  AUC(0-t): 152000 ng·h/mL
[1]; [9]
  Cmax: 22100 ng/mL
  AUC(0-t): 224000 ng·h/mL
[1]; [10]
  Cmax: 2730 ng/mL
  AUC(0-t): 29700 ng·h/mL
[1]; [11]
  Cmax: 3120 ng/mL
  AUC(0-t): 24100 ng·h/mL
[1]; [12]
  Cmax: 11200 ng/mL
  AUC(0-t): 114000 ng·h/mL
[1]; [13]
  Cmax: 13100 ng/mL
  AUC(0-t): 98600 ng·h/mL
[1]; [14]
  Cmax: 11000 ng/mL
  AUC(0-t): 137000 ng·h/mL
[1]; [15]
  Cmax: 18300 ng/mL
  AUC(0-t): 193000 ng·h/mL
[2]; dog, 10, 35, or 75 mg/kg/day, 14 days
  deaths: No deaths were observed at any dose
[2]; dog, 35 or 75 mg/kg/day, oral, 14 days
  findings: emesis, liquid/loose feces, reduced food intake, and losses in body weight in some individuals
[2]; dog, Days 1 and 14
  mean exposures vs dose: increased with dose in a broadly proportionate manner
[3]
  genotoxicity, bacterial reverse mutation assay: negative
